What was measured:
[1] = biological target: T1, A3R (Homo sapiens, UniProt P0DMS8); assay: Activity assay of adenosine receptor modulators, A3R cAMP (Table 1); assay type: cell-based
T1 sequence (P0DMS8 1-318): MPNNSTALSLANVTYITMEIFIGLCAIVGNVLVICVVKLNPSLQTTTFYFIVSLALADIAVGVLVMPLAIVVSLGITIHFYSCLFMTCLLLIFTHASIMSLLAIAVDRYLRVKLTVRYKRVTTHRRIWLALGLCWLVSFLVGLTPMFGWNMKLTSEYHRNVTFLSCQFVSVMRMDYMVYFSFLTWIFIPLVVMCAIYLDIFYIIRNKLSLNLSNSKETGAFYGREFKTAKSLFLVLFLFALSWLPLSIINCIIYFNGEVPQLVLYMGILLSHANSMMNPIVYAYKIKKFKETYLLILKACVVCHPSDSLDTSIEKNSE
Experimental: (§1) Compounds (e.g., adenosine receptor modulators) were tested for its biological activity. The assay results in Table 1 indicate (+ means >1 μM; ++ means 100 nM to 1 μM; +++ means <100 nM).

[2] = biological target: T2, A1R (Homo sapiens, UniProt P30542); assay: Activity assay of adenosine receptor modulators, A1R cAMP (Table 1); assay type: cell-based
T2 sequence (P30542 1-326): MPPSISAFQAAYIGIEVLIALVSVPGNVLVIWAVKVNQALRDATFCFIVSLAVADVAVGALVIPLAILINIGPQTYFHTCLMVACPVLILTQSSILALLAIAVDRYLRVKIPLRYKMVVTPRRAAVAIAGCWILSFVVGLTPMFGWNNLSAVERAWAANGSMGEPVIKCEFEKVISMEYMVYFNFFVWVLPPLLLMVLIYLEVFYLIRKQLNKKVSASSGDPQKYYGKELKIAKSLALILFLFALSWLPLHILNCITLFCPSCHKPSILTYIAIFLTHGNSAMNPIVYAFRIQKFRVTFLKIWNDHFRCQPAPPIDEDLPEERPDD
Experimental: as §1

[3] = biological target: Adenosine A2A Receptor (Homo sapiens, UniProt P29274); assay: Activity assay of adenosine receptor modulators, Adenosine A2A Receptor (Table 1); assay type: biochemical; conditions: cAMP; read-out: A2AR cAMP IC50
Chain of Adenosine A2A Receptor (P29274 whole entry): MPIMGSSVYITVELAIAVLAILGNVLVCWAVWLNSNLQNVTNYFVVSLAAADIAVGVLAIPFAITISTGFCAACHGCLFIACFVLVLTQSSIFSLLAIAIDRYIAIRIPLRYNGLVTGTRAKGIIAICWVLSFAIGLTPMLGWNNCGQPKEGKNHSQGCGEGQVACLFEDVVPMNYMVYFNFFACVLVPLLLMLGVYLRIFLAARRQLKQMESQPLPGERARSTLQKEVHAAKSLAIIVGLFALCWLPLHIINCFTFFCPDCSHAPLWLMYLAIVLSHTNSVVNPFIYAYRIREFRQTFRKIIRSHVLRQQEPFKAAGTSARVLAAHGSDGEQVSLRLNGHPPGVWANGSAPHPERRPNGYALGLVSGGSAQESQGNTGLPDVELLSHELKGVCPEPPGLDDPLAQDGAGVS
Experimental: as §1

[4] = biological target: T3, Adenosine A2B Receptor (Homo sapiens, UniProt P29275); assay: Activity assay of adenosine receptor modulators, Adenosine A2B Receptor (Table 1); assay type: biochemical; conditions: cAMP; read-out: A2BR cAMP IC50
T3 sequence (P29275 1-332): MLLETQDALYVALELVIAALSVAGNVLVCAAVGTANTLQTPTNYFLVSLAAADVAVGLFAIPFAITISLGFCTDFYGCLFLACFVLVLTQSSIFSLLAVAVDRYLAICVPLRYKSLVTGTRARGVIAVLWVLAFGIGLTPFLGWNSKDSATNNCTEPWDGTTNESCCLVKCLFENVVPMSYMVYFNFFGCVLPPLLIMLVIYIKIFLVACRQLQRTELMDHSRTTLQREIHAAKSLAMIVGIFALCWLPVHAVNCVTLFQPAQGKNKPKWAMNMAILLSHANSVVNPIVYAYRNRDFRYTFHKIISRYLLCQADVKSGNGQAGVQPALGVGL
Experimental: as §1

Cc1nc2nc(N[C@@H](C)c3cncc(F)c3)nc(C(=O)N3CC(NC(=O)c4ccoc4)C3)c2s1 [Example 72, (S)—N-(1-(5-((1-(5-Fluoropyridin-3-yl)ethyl)amino)-2-methylthiazolo[4,5-d]pyrimidine-7-carbonyl)azetidin-3-yl)furan-3-carboxamide]
IC50 [1]: 100 to 1000 nM | IC50 [2]: > 1000 nM | IC50 [3]: < 100 nM | IC50 [4]: 100 to 1000 nM

Cc1nc2nc(N[C@@H](C)c3cccnc3)nc(C(=O)N3CC(NC(=O)c4ccoc4)C3)c2s1 [Example 80, N-[1-[2-Methyl-5-[[(S)-1-(3-pyridyl)ethyl]amino]thiazolo[4,5-d]pyrimidine-7-carbonyl]azetidin-3-yl]furan-3-carboxamide]
IC50 [1]: > 1000 nM | IC50 [2]: > 1000 nM | IC50 [3]: < 100 nM | IC50 [4]: 100 to 1000 nM

Cc1nc2nc(N[C@@H](C)c3cncc(F)c3)nc(C(=O)N3CC(NC(=O)C(C)(C)C)C3)c2s1 [Example 37, (S)—N-(1-(5-((1-(5-Fluoropyridin-3-yl)ethyl)amino)-2-methylthiazolo[4,5-d]pyrimidine-7-carbonyl)azetidin-3-yl)pivalamide]
IC50 [1]: < 100 nM | IC50 [2]: > 1000 nM | IC50 [3]: < 100 nM | IC50 [4]: < 100 nM

Cc1nc2nc(N[C@@H](C)c3cccnc3)nc(C(=O)N3CC(NC(=O)C45CC6CC(CC(C6)C4)C5)C3)c2s1 [Example 77, N-[1-[2-Methyl-5-[[(S)-1-(3-pyridyl)ethyl]amino]thiazolo[4,5-d]pyrimidine-7-carbonyl]azetidin-3-yl]adamantane-1-carboxamide]
IC50 [1]: 100 to 1000 nM | IC50 [2]: > 1000 nM | IC50 [3]: < 100 nM | IC50 [4]: < 100 nM

Cc1nc2nc(N[C@@H](C)c3cncc(F)c3)nc(C(=O)N3CC[C@@H](O)C3)c2s1 [Example 7, (5-(((S)-1-(5-Fluoropyridin-3-yl)ethyl)amino)-2-methylthiazolo[4,5-d]pyrimidin-7-yl)((R)-3-hydroxypyrrolidin-1-yl)methanone]
IC50 [1]: > 1000 nM | IC50 [2]: > 1000 nM | IC50 [3]: 100 to 1000 nM | IC50 [4]: < 100 nM

Cc1nc2nc(N[C@@H](C)c3cccnc3)nc(C(=O)N3CC[C@@H](O)C3)c2s1 [Example 16, ((R)-3-Hydroxypyrrolidin-1-yl)(2-methyl-5-(((S)-1-(pyridin-3-yl)ethyl)amino)thiazolo[4,5-d]pyrimidin-7-yl)methanone]
IC50 [1]: > 1000 nM | IC50 [2]: > 1000 nM | IC50 [3]: > 1000 nM | IC50 [4]: < 100 nM

Cc1nc2nc(N[C@@H](C)c3cncc(F)c3)nc(C(=O)N3CC(NC(=O)C4CCOCC4)C3)c2s1 [Example 68, (S)—N-(1-(5-((1-(5-Fluoropyridin-3-yl)ethyl)amino)-2-methylthiazolo[4,5-d]pyrimidine-7-carbonyl)azetidin-3-yl)tetrahydro-2H-pyran-4-carboxamide]
IC50 [1]: 100 to 1000 nM | IC50 [2]: > 1000 nM | IC50 [3]: < 100 nM | IC50 [4]: 100 to 1000 nM

Cc1nc2nc(N[C@@H](C)c3cncc(F)c3)nc(C(=O)N3CC(NC(=O)c4ccccc4F)C3)c2s1 [Example 59, (S)-2-Fluoro-N-(1-(5-((1-(5-fluoropyridin-3-yl)ethyl)amino)-2-methylthiazolo[4,5-d]pyrimidine-7-carbonyl)azetidin-3-yl)benzamide]
IC50 [1]: 100 to 1000 nM | IC50 [2]: > 1000 nM | IC50 [3]: < 100 nM | IC50 [4]: < 100 nM

COc1cccc(C(=O)NC2CN(C(=O)c3nc(N[C@@H](C)c4cncc(F)c4)nc4nc(C)sc34)C2)c1 [Example 71, (S)—N-(1-(5-((1-(5-Fluoropyridin-3-yl)ethyl)amino)-2-methylthiazolo[4,5-d]pyrimidine-7-carbonyl)azetidin-3-yl)-3-methoxybenzamide]
IC50 [1]: 100 to 1000 nM | IC50 [2]: > 1000 nM | IC50 [3]: < 100 nM | IC50 [4]: < 100 nM

Cc1nc2nc(N[C@@H](C)c3cncc(F)c3)nc(C(=O)NC[C@H](C)O)c2s1 [Example 5, 5-(((S)-1-(5-Fluoropyridin-3-yl)ethyl)amino)-N—((S)-2-hydroxypropyl)-2-methylthiazolo[4,5-d]pyrimidine-7-carboxamide]
IC50 [1]: 100 to 1000 nM | IC50 [2]: 100 to 1000 nM | IC50 [3]: > 1000 nM | IC50 [4]: < 100 nM

Cc1nc2nc(N[C@@H](C)c3ccccn3)nc(C(=O)N3CC(NC(=O)NC(C)(C)C)C3)c2s1 [Example 63, (S)-1-(tert-Butyl)-3-(1-(2-methyl-5-((1-(pyridin-2-yl)ethyl)amino)thiazolo[4,5-d]pyrimidine-7-carbonyl)azetidin-3-yl)urea]
IC50 [1]: 100 to 1000 nM | IC50 [2]: > 1000 nM | IC50 [3]: < 100 nM | IC50 [4]: 100 to 1000 nM

CC(=O)N[C@@H]1CCN(C(=O)c2nc(N[C@@H](C)c3cncc(F)c3)nc3nc(C)sc23)C1 [Example 30, N—((R)-1-(5-(((S)-1-(5-Fluoropyridin-3-yl)ethyl)amino)-2-methylthiazolo[4,5-d]pyrimidine-7-carbonyl)pyrrolidin-3-yl)acetamide]
IC50 [1]: > 1000 nM | IC50 [2]: > 1000 nM | IC50 [3]: > 1000 nM | IC50 [4]: 100 to 1000 nM

COCC1CN(C(=O)c2nc(N[C@@H](C)c3cncc(F)c3)nc3nc(C)sc23)C1 [Example 51, (S)-(5-((1-(5-Fluoropyridin-3-yl)ethyl)amino)-2-methylthiazolo[4,5-d]pyrimidin-7-yl)(3-(methoxymethyl)azetidin-1-yl)methanone]
IC50 [1]: > 1000 nM | IC50 [2]: > 1000 nM | IC50 [3]: 100 to 1000 nM | IC50 [4]: < 100 nM

Cc1nc2nc(N[C@@H](C)c3ccccn3)nc(C(=O)N3CCC3)c2s1 [Example 8, (S)-Azetidin-1-yl(2-methyl-5-((1-(pyridin-2-yl)ethyl)amino)thiazolo[4,5-d]pyrimidin-7-yl)methanone]
IC50 [1]: 100 to 1000 nM | IC50 [2]: > 1000 nM | IC50 [3]: 100 to 1000 nM | IC50 [4]: < 100 nM

Cc1nc2nc(N[C@@H](C)c3cccnc3)nc(C(=O)N3CC(NC(=O)NC4CCCC4)C3)c2s1 [Example 79, 1-Cyclopentyl-3-[1-[2-methyl-5-[[(S)-1-(3-pyridyl)ethyl]amino]thiazolo[4,5-d]pyrimidine-7-carbonyl]azetidin-3-yl]urea]
IC50 [1]: 100 to 1000 nM | IC50 [2]: > 1000 nM | IC50 [3]: < 100 nM | IC50 [4]: < 100 nM

CC(=O)NC[C@H]1CCN(C(=O)c2nc(N[C@@H](C)c3cncc(F)c3)nc3nc(C)sc23)C1 [Example 53, N—(((R)-1-(5-(((S)-1-(5-Fluoropyridin-3-yl)ethyl)amino)-2-methylthiazolo[4,5-d]pyrimidine-7-carbonyl)pyrrolidin-3-yl)methyl)acetamide]
IC50 [1]: > 1000 nM | IC50 [2]: > 1000 nM | IC50 [3]: > 1000 nM | IC50 [4]: 100 to 1000 nM

Cc1nc2nc(N[C@@H](C)c3cccnc3)nc(C(=O)N3CC(NC(=O)C4CCCCC4)C3)c2s1 [Example 81, N-[1-[2-Methyl-5-[[(S)-1-(3-pyridyl)ethyl]amino]thiazolo[4,5-d]pyrimidine-7-carbonyl]azetidin-3-yl]cyclohexanecarboxamide]
IC50 [1]: 100 to 1000 nM | IC50 [2]: > 1000 nM | IC50 [3]: < 100 nM | IC50 [4]: < 100 nM

Cc1nc2nc(N[C@@H](C)c3cccnc3)nc(C(=O)N3CC(NC(=O)c4ccccc4)C3)c2s1 [Example 73, N-[1-[2-Methyl-5-[[(S)-1-(3-pyridyl)ethyl]amino]thiazolo[4,5-d]pyrimidine-7-carbonyl]azetidin-3-yl]benzamide]
IC50 [1]: 100 to 1000 nM | IC50 [2]: > 1000 nM | IC50 [3]: < 100 nM | IC50 [4]: 100 to 1000 nM

Cc1nc2nc(N[C@@H](C)c3cncc(F)c3)nc(C(=O)NCCc3ccc(S(N)(=O)=O)cc3)c2s1 [Example 31, (S)-5-((1-(5-Fluoropyridin-3-yl)ethyl)amino)-2-methyl-N-(4-sulfamoylphenethyl)thiazolo[4,5-d]pyrimidine-7-carboxamide]
IC50 [1]: > 1000 nM | IC50 [2]: > 1000 nM | IC50 [3]: > 1000 nM | IC50 [4]: < 100 nM

Cc1nc2nc(N[C@@H](C)c3cncc(F)c3)nc(C(=O)N3CC[C@@H](CO)C3)c2s1 [Example 49, (5-(((S)-1-(5-Fluoropyridin-3-yl)ethyl)amino)-2-methylthiazolo[4,5-d]pyrimidin-7-yl)((R)-3-(hydroxymethyl)pyrrolidin-1-yl)methanone]
IC50 [1]: > 1000 nM | IC50 [2]: > 1000 nM | IC50 [3]: > 1000 nM | IC50 [4]: < 100 nM
